Values joined by “and” are separate entries in the source; they are usually repeats but may differ in a detail not shown here. Equal entries are not always repeated.
Experiments:
[1] = in vivo; cited from earlier work
[2] = human, in vivo
[3] = human, in vivo; remark: listed apart in the source
[4] = tested on: schizophrenia patients; settings: human, in vivo
[5] = tested on: patients (Met allele carriers, Val/Val); parameters: species or system human; settings: in vivo
[6] = tested on: patients (Met allele carriers, Val/Val); settings: in vivo; cited from earlier work
[7] = human, in vivo; remark: listed apart in the source

Row | SMILES | effect on circulating proline levels [1] | fasting plasma proline, mean ± SD [2] | fasting plasma proline versus patients who did not receive the drug [3] | difference in SANS total score, Val/Val versus Val/Met and Met/Met (regression coefficient) [4] | β (95% CI), bivariate association of treatment with total SANS score [4] | effect on circulating proline [1] | patients showing improvement in negative symptoms after treatment onset [5] | blood level considered the lower end of the therapeutic range [6] | fasting L-serine level [7] | fasting glycine level [7]
1 | CCO [Ethanol] | increases |  |  |  |  |  |  |  |  | 
2 | CCCC(CCC)C(=O)O [VPA, 2-propylpentanoic acid] |  | 299.29±94.76 | significantly higher | −12.17 | −0.578 (−7.157, 6.001) | upregulates | 2 out of 9 and 5 out of 7 | 50 µg/mL | 117 µM | 361 µM
